Experimental data published in patent publication US20200038412A1, “METHODS OF TREATING ALZHEIMER'S DISEASE USING AMINOSTEROL COMPOSITIONS” (Enterin, Inc., priority 2018, published 2020).
Several values for one entry are separate records, joined by “and”; a condition that tells them apart may be missing. Equal values may be shown once.

Assays:
[1] = tested on: patients with PD and constipation; test: Phase 2 trial Stage 2: CNS symptoms (UPDRS, MMSE, PDHQ, BDI-II, sleep diary); assay type: in vivo, human; conditions: for patients in whom hallucinations and delusions improved or disappeared during treatment: 6 patients with hallucinations (5) or delusions (1) at baseline; for UPDRS Part 1 (NMS): baseline 11.6 (6.51); for UPDRS Total: baseline 64.4 (23.72); for BDI-II: baseline 10.9 (7.12); for MMSE: baseline 28.4 (1.75)
Description: Exploratory end-points, in addition to constipation, included for example, (i) depression assessed using the Beck Depression Inventory (BDI-II) (Steer et al. 2000) and Unified Parkinson's Disease Rating Scale (UPDRS); (ii) cognition assessed using the Mini Mental State Examination (MMSE) (Palsteia et al. 2018), Unified Parkinson's Disease Rating Scale (UPDRS), and Trail Making Test (TMT); (iii) sleep and REM-behavior disorder (RBD) using a daily sleep diary, I-Button Temperature Assessment, a REM sleep behavior disorder (RBD) questionnaire (RBDQ) (Stiasny-Kolster et al. 2007), and the UPDRS; (iv) hallucinations assessed using the PD hallucinations questionnaire (PDHQ) (Papapetropoulos et al. 2008), the UPDRS, and direct questioning; (v) fatigue using the Parkinson's Disease Fatigue Scale (PFS-16) and the UPDRS; (vi) motor functions using the UPDRS; and (vii) non-motor functions using the UPDRS.
Assessments were made at baseline and at the end of the fixed dose and washout periods. Circadian system status was evaluated by continuously monitoring wrist skin temperature (Thermochron iButton DS1921H; Maxim, Dallas) following published procedures (Sarabia et al. 2008).
An exploratory analysis was done with respect to the sleep data, the body temperature data, mood, fatigue, hallucinations, cognition and other motor and non-motor symptoms of PD. Continuous measurements within a subject were compared with a paired t-test and continuous measurements between subject groups were compared with a two-group t-test. Categorical data were compared with a chi-squared test or a Fisher's exact test if the expected cell counts are too small for a chi-squared test.
CNS symptoms were evaluated at baseline and at the end of the fixed dose period and the wash-out period (Table 12). Total UPDRS score was 64.4 at baseline, 60.6 at the end of the fixed dose period and 55.7 at the end of the wash-out period (p=0.002); similarly, the motor component of the UPDRS improved from 35.3 at baseline to 33.3 at the end of fixed dose to 30.2 at the end of wash-out (p=0.006). MMSE improved from 28.4 at baseline to 28.7 during treatment and to 29.3 during wash-out (p=0.0006). […] PDHQ improved from 1.3 at baseline to 1.8 during treatment and 0.9 during wash-out (p=0.03). Hallucinations were reported by 5 patients at baseline and delusions in 1 patient. […] The frequency of arm or leg thrashing reported in the sleep diary diminished progressively from 2.2 episodes/week at baseline to 0 at maximal dose. […] Unlike stool-related indices, the improvement in many CNS symptoms persisted during wash-out.

Solubility in water = assay type: physicochemical
[2] = Pharmacokinetics of orally administered squalamine (ENT-01) in Stage 1; assay type: in vivo, human
Experimental: PK data were collected on the 10 patients enrolled in Stage 1 and 10 patients enrolled in Stage 2 to determine the extent of systemic absorption. In Stage 1, PK data were obtained at each visit, pre-medication, at 1, 2, 4, 8 and 24 hours (Table 10). In Stage 2, PK was measured on days 1 and 6 of the randomization period pre-medication, at 1, 2, 4 and 8 hours (Table 11).
The mean Cmax, Tmax and T1/2 and AUC of the squalamine ion following squalamine (ENT-01) oral dosing for Stage 1 patients. The PK analyses are only approximate, as the lower limit of the validated concentration range was 10 ng/ml; most of the measured concentrations fell below that value. The mean Cmax, Tmax and T1/2 and AUC of the squalamine ion following squalamine (ENT-01) oral dosing for Stage 2 patients. The PK analyses are only approximate, as the lower limit of the validated concentration range was 0.5 ng/ml.

[3] = Stage 2, end of fixed dose, mean (SD), n = 34
[4] = Stage 2, end of wash-out, mean (SD)
[5] = Stage 2, fixed dose, mean (SD), n = 34

CC(C)[C@@H](CC[C@@H](C)[C@H]1CC[C@H]2[C@@H]3[C@H](O)C[C@H]4C[C@@H](NCCCNCCCCN)CC[C@]4(C)[C@H]3CC[C@]12C)OS(=O)(=O)O (single isomer, unassigned) [squalamine (ENT-01), squalamine]
patients in whom hallucinations and delusions improved or disappeared during treatment [1]: 5 of 6
patients in whom hallucinations and delusions improved or disappeared during treatment ([1]; listed as ENT-01): five
patients in whom hallucinations and delusions improved or disappeared during treatment ([1]; listed as aminosterol): five and 5 of 6
increase of total sleep time ([1]; 7.1 hours at baseline to 8.4 hours at 250 mg): 18%
UPDRS Part 1 (NMS) [1, 3]: 10.6 (6.18))
UPDRS Total [1, 3]: 60.6
UPDRS Total ([1]; Stage 2, end of fixed dose, mean (SD), n = 34, listed as Squalamine (ENT-01)): 60.6 (25.60)
UPDRS Part 1 (NMS) [1, 4]: 9.5 (5.27)
UPDRS Total [1, 4]: 55.7
UPDRS Total ([1]; Stage 2, end of wash-out, mean (SD), listed as Squalamine (ENT-01)): 55.7 (23.69)
BDI-II [1, 5]: 9.9 (6.45)
MMSE [1, 5]: 28.7 (1.9)
PDHQ ([1]; Stage 2, wash-out, mean (SD), baseline 1.3 (2.99)): 0.9 (2.33)
BDI-II ([1]; Stage 2, wash-out, mean (SD)): 8.7 (5.19)
MMSE ([1]; Stage 2, wash-out, mean (SD)): 29.3 (1.06)
frequency of arm or leg thrashing reported in the sleep diary ([1]; at maximal dose, baseline 2.2): 0 episodes/week
improvement of frequency of arm or leg thrashing ([1]; baseline 2.2 episodes/week to 0 at maximal dose): 100%
improvement in depression scoring (BDI-II) ([1]; baseline 10.9 to wash-out 8.7): 20%
improvement of UPDRS Part 1 ([1]; baseline 11.6 to wash-out 9.5, listed as aminosterol): ~20% and 18%
improvement of total UPDRS score ([1]; baseline 64.4 to end of wash-out 55.7): 13.5%
total sleep time versus baseline ([1]; beyond 125 mg): consistently higher than baseline
time patient remained free of hallucinations following cessation of dosing ([1]; one patient): 1 month
dose at which hallucinations disappeared ([1]; one patient, colonic prokinetic dose of 175 mg not reached): 100 mg
solubility in water (Solubility in water; neutral pH): weakly soluble
dissolution in water (Solubility in water; pH<3.5 (the pH of gastric fluid)): readily dissolves
AUC0-8 hr ([2]; Stage 1, oral 50 mg, 10 patients): 18.5 ng·h/mL
AUC0-8 hr ([2]; Stage 1, oral 100 mg, 9 patients): 29.6 ng·h/mL
AUC0-8 hr ([2]; Stage 1, oral 200 mg, 6 patients): 78.3 ng·h/mL
T1/2 ([2]; Stage 1, oral 200 mg, n = 5): 9.0 (5) hours
approximate oral bioavailability ([2]; Stage 1, oral dosing up to 200 mg, compared with prior phase 1 IV data): about 0.1%
bioavailability ([2]; human, plasma, oral, PD patients, estimated from pharmacokinetic behavior of intravenously administered squalamine in prior clinical studies): < 0.3%
